The target of one experiment is PI3Kβ (Homo sapiens, UniProt P42338). As to the kind of experiment: PI3Kβ enzyme activity inhibition IC50 evaluation assay (ADP-Glo Kinase Assay). In kind it is biochemical. The following applies: ATP 25 μM, PIP2 50 μg/mL, 1 hour room temperature, read-out: PI3K-β IC50. As for the experimental part:
(§1) Effec Example 1 IC50 evaluation assay for PI3Kα, PI3Kδ, PI3Kβ and PI3Kγ enzyme activity inhibition
(§2) The experiment was performed using the ADP-Glo Kinase Assay kit, following the instructions. The following buffer solutions were prepared: 50 mM HEPES, pH 7.5, 3 mM MgCl2, 1 mM EGTA, 100 mM NaCl, 0.03% CHAPS, 2 mM DTT. The test compound samples were dissolved in DMSO and added to the screening system at a certain starting concentration such as 10 μM, 3-fold dilution, while setting up both DMSO control and no kinase control. The optimal concentrations of PI3Kα, PI3Kδ, PI3Kβ and PI3Kγ enzymes, substrate (PIP2) and ATP were prepared in buffer. The enzyme reaction system included: buffer, ATP 25 μM, kinase substrate (PIP2, 50 μg/mL), kinases [PI3Kα (0.15 μg/mL), PI3Kδ (1.2 μg/mL), PI3Kβ (0.3 μg/mL) and PI3Kγ (2.5 μg/mL)], etc. The reaction system was reacted at room temperature for 1 hour. The reaction was terminated by adding a termination reagent (ADP-Glo reagent, 5 μL), and the ADP content in the system was detected using a detection reagent (Kinase Detection Reagent, 10 μL). Signal data were collected using the Envision instrument. Calculate the percentage of (%) inhibition according to the following formula: % inhibition=(DMSO control signal value−sample signal value)/(DMSO control signal value−no-kinase control signal value). The IC50 value was obtained by fitting the curve using the formula Y=Bottom+(Top-Bottom)/(1+(IC50/X)^HillSlope).

In a further experiment the target is PI3Kγ (Homo sapiens, UniProt P48736). As to the kind of experiment: PI3Kγ enzyme activity inhibition IC50 evaluation assay (ADP-Glo Kinase Assay). The following applies: ATP 25 μM, PIP2 50 μg/mL, 1 hour room temperature, read-out: PI3K-γ IC50. It is filed as biochemical. As for the experimental part:
as §1, §2

One may read the IC50 as the midpoint of a concentration-inhibition curve.

Sequence of PI3Kγ (P48736 whole entry, species assumed): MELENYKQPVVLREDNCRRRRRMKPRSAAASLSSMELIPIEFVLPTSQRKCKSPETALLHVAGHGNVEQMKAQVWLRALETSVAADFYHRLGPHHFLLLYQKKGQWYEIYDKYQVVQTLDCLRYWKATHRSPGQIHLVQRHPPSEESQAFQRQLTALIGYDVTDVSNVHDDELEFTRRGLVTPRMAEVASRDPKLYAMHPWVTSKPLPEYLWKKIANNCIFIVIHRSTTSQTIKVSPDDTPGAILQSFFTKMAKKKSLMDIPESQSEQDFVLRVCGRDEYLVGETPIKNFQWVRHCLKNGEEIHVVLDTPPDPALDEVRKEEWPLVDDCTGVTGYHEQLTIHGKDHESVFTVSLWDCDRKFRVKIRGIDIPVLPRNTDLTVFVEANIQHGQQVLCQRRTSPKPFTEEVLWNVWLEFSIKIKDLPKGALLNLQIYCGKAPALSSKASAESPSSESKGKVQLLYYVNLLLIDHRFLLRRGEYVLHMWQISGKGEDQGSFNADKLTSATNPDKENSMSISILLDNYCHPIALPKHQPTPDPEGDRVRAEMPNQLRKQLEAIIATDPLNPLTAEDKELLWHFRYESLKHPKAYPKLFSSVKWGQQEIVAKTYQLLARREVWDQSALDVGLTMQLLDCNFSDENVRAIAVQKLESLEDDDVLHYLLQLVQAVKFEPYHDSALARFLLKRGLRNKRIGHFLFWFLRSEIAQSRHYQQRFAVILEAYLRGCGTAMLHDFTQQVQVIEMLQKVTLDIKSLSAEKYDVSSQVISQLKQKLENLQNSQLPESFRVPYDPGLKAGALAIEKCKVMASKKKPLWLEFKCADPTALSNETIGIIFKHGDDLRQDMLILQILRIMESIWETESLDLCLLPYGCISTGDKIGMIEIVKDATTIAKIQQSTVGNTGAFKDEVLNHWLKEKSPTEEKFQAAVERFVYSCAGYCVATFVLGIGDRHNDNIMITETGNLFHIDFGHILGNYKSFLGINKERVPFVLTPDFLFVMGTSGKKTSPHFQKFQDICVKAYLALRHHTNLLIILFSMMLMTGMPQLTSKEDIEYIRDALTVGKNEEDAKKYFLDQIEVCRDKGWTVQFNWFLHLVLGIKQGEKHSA
Sequence of PI3Kβ (P42338 whole entry, species assumed): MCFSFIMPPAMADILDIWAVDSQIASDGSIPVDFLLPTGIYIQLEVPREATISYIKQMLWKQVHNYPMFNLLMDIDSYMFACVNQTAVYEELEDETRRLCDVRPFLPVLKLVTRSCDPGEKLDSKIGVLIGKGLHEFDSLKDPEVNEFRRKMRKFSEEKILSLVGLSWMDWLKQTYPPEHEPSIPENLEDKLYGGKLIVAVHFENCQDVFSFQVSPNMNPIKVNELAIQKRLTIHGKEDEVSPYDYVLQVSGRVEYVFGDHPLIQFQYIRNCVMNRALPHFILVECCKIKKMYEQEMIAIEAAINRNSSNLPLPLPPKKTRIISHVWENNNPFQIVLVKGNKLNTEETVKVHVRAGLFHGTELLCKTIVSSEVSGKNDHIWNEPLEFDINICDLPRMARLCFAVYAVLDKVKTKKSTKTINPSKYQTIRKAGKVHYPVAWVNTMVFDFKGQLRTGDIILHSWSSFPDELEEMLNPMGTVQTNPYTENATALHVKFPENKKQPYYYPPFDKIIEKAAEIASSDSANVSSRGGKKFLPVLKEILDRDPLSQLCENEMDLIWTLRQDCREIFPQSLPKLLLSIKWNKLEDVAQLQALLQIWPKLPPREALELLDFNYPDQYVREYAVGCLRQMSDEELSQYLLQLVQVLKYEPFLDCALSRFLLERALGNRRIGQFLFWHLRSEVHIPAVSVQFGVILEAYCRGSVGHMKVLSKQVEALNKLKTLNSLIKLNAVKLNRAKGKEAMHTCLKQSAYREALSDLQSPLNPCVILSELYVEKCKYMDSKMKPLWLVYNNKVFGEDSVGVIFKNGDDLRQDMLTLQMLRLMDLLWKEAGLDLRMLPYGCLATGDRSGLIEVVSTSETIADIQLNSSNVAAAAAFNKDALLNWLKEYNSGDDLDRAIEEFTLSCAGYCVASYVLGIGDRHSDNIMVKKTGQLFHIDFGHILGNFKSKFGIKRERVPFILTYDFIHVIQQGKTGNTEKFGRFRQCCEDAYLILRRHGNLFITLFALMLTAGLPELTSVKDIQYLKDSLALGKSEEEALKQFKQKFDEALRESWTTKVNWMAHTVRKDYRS
Sequence of PI3Kβ (P27986 whole entry partner, species assumed): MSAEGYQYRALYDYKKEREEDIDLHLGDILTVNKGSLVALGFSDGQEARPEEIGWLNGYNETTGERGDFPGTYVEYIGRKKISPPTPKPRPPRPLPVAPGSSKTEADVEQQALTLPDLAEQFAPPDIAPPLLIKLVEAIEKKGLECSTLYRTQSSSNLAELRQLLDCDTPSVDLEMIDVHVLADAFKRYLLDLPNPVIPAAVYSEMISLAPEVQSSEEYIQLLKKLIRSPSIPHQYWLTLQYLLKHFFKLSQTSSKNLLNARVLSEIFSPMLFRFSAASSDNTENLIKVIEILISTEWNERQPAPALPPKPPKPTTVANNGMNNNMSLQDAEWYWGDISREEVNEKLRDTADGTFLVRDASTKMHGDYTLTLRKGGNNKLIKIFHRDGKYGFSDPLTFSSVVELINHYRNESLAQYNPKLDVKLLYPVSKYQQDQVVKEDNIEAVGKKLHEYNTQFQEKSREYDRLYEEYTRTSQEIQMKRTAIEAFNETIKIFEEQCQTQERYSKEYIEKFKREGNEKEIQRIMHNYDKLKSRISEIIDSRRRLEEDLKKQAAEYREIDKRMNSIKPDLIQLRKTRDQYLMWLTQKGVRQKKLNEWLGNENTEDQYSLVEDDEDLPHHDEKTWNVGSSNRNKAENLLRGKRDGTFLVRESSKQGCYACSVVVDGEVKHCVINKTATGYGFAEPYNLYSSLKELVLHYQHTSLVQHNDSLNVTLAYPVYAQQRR

For `COc1ncc(-c2nc(N3CCOCC3)nc3c(CN4CCN(c5ncc(C(=O)NO)cn5)CC4)cc(F)cc23)cc1NS(C)(=O)=O` [Compound 7], the half-maximal inhibitory concentration (IC50) at PI3Kβ lay in the range of 0.1 to 1 µM; on PI3Kγ it was 1 to 10 µM.

For `COc1ncc(-c2nc(N3CCOCC3)nc3c(OC4CCN(c5ncc(C(=O)NO)cc5F)CC4)cc(F)cc23)cc1NS(C)(=O)=O` [Compound 30], the IC50 on PI3Kβ and on PI3Kγ was 1 to 10 µM each time.

Values taken from patent publication US20240217947A1, “Morpholinylquinazoline Compound, Pharmaceutical compositions thereof and Use Thereof” (SHANGHAI YINGLI PHARMACEUTICAL CO., LTD, priority 2022, published 2024).
